According to paper PMC6327980 (Journal of Enzyme Inhibition and Medicinal Chemistry, 2018):
Where two headings read alike, the source gives them in different places.

Legend:
[1] = target: T1, BpsCAγ; assay type: biochemical, Burkholderia pseudomallei
T1 construct: gene BpsCAgamma

[2] = target: T2, VchCAβ (Vibrio cholerae, UniProt Q9KUD6); assay: biochemical
T2 construct: gene VC_0586

[3] = target: T3, VchCAα (Vibrio cholerae, UniProt Q9KMP6); assay: biochemical
T3 construct: gene VC_A0274

[4] = target: T4, BpsCAβ (Burkholderia pseudomallei, UniProt Q63Y17); assay type: biochemical; conditions: read-out: BpsCAβ
T4 construct: gene BPSL0372
T4 sequence (Q63Y17 1-256): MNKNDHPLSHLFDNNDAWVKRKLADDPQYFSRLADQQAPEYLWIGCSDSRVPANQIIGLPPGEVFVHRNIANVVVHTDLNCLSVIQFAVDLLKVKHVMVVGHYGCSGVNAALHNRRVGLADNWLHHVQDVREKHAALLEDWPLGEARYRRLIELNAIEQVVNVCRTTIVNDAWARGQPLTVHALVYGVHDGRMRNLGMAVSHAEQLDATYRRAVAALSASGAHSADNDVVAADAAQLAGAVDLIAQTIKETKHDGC

T3 sequence (Q9KMP6 21-239 limits assumed): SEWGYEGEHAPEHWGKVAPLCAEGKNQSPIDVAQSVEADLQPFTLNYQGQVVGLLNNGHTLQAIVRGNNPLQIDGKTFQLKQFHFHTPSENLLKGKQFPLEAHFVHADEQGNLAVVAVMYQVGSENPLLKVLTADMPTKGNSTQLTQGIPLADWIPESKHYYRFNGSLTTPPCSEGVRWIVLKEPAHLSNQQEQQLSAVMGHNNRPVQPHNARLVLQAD
T2 sequence (Q9KUD6 1-222): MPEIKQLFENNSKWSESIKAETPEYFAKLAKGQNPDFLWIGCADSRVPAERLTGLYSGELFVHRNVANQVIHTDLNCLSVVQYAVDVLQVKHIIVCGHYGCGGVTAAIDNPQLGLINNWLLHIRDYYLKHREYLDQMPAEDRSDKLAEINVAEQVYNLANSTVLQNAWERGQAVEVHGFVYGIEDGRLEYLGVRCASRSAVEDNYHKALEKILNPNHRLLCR

N=C(N)SCc1cnc(-c2ccc(S(N)(=O)=O)cc2)[se]1 [compound 11, 11]
Ki ([1]; read-out: BpsCAγ): 6.55 µM | Ki [2]: 9.12 µM | Ki [3]: 0.44 µM

Cc1ccc([Se]Cc2cnc(-c3ccc(S(N)(=O)=O)cc3)[se]2)cc1 [10b]
Ki [2]: 8.59 µM | Ki [3]: 0.46 µM

COc1ccc([Te]Cc2cnc(-c3ccc(S(N)(=O)=O)cc3)[se]2)cc1 [9c]
Ki [2]: 9.08 µM | Ki [3]: 0.77 µM

NS(=O)(=O)c1ccc(-c2ncc(C[Te]c3ccccc3)[se]2)cc1 [9a]
Ki ([1]; read-out: VchCAγ): 8.9 µM | Ki [4]: 0.92 µM | Ki [2]: 7.7 µM | Ki [3]: 0.94 µM

COc1ccc([Se]Cc2cnc(-c3ccc(S(N)(=O)=O)cc3)[se]2)cc1 [10c]
Ki [2]: 6.79 µM | Ki [3]: 0.92 µM

NS(=O)(=O)c1ccc(-c2ncc(C[Se]c3ccccc3)[se]2)cc1 [10a]
Ki [2]: 8.84 µM | Ki [3]: 0.87 µM

Cc1ccc([Te]Cc2cnc(-c3ccc(S(N)(=O)=O)cc3)[se]2)cc1 [9b]
Ki ([1]; read-out: VchCAγ): 7.6 µM | Ki [4]: 0.32 µM | Ki [2]: 7.72 µM | Ki [3]: 0.47 µM
